Data from article PMC6349357, “Computational and experimental analysis of bioactive peptide linear motifs in the integrin adhesome” (PLoS ONE, 2019).
Marks after values point to notes of the source that are not given here.

What was measured:
resting platelets = experiment: Platelet aggregation induced by peptide in resting washed platelets (activation); type: cell-based, human (healthy volunteers); conditions: for Activation: platelet aggregation in resting platelets after 6 minutes incubation with peptide, pal-peptides 20 μM, tat-peptides 50 μM, optical density, aggregometer, mean, n>=3; for Aggregation before TRAP activation, donor h: replicate donor h; for Aggregation before TRAP activation, donor i: replicate donor i; for Aggregation before TRAP activation, donor j: replicate donor j
Method: (§1) Blood was drawn from healthy volunteers into a syringe containing a final volume of 15% Acid Citrate Dextrose (ACD). The blood/ACD mixture was then aliquoted into 15 ml Cellstar tubes, at volumes of 5ml per tube, and centrifuged at 150 rcf for 10 minutes to obtain platelet rich plasma (PRP). PRP was then transferred to a 50ml tube using a pipette. The pH was then adjusted to 6.5. Prostaglandin (PGE1) was then added with a final concentration of 1μM. The PRP was then centrifuged at 750 rcf. After centrifugation the platelet poor plasma (PPP) was discarded and the pellet was resuspended in buffer A (6 mM dextrose, 130 mM NaCl, 9 mM NaHCO3, 10 mM sodium citrate, 10 mM Tris base, 3 mM KCl, 0.81 mM KH2PO4 and 0.9 mM MgCl26H2O, pH 7.4). A platelet concentration of 3x10^5/μl or 1x10^6/μl was obtained by dilution depending on the experiment in which they were used. Platelets were left to rest for 45 minutes and supplemented with 1.8mM calcium chloride prior to use.
(§2) A platelet concentration of 3x10^5 /μl was used when performing standard aggregations and a concentration of 1x10^6 /μl was used for sample preparation for western blot analysis. The extent of platelet aggregation was measured by quantifying the optical density of the samples using the Bio-Data PAP-8 aggregometer (platelet aggregation profiler, Horsham, PA, USA). A temperature of 37°C was maintained and samples were stirred using magnets spinning at 1100 rpm. 200 μl of washed platelets was added to each aggregation tube. Different volumes of buffer, peptide and TRAP were added to achieve the desired concentrations. Peptide/buffer was added to each well after two minutes. TRAP, with a final concentration depending on the experiment, was added 6 minutes later and data was collected for an additional 7 minutes.

TRAP-activated platelets = experiment: Inhibition of TRAP-induced platelet aggregation after pre-incubation with peptide; type: cell-based, human (healthy volunteers); conditions: for Aggregation after TRAP activation, donor h: replicate donor h; for Aggregation after TRAP activation, donor i: replicate donor i; for Aggregation after TRAP activation, donor j: replicate donor j
Method: as §1, §2

[1] = platelet aggregation induced by 4 μM TRAP in platelets pre-incubated with peptide (low value = inhibition), pal-peptides 20 μM, tat-peptides 50 μM, mean, n>=3
[2] = TRAP 4 μM, pal 20 μM, tat 50 μM

## pal-RMKKKDEGSYD-(NH2) [pal-SDC4_JM, N-terminally palmitylated syndecan-4 juxtamembrane peptide]
Resting platelets; S3 Table, peptide 5 μM, n=3, unit assumed
  Activation, 5μM: 2%
Resting platelets; S3 Table, peptide 20 μM, n=3, unit assumed
  Activation, 20μM: 1%
Resting platelets; unit assumed
  Activation: 0%
Resting platelets; replicate 14_06_13, SDC4 peptides and controls, 20 μM, unit assumed
  Activation, donor 14 06 13: 1%
Resting platelets; replicate 18_06_13, SDC4 peptides and controls, 20 μM, in % (unit assumed)
  Activation, donor 18_06_13: 1
Resting platelets; replicate 20_06_13, SDC4 peptides and controls, 20 μM, in % (unit assumed)
  Activation, donor 20_06_13: 2
Resting platelets; replicate 20_08_13, SDC4 peptides and controls, 20 μM, unit assumed
  Activation, donor 20 08 13: 1%
Resting platelets; replicate 22_08_13_DONOR1, SDC4 peptides and controls, 20 μM
  Activation, donor 22_08_13_DONOR1: 0
Resting platelets; replicate 22_08_13_DONOR2, SDC4 peptides and controls, 20 μM
  Activation, donor 22_08_13_DONOR2: 1
Resting platelets; pal 20 μM, tat 50 μM
  Aggregation before TRAP activation, donor h: 1
  Aggregation before TRAP activation, donor i: 0
  Aggregation before TRAP activation, donor j: 2
TRAP-activated platelets; S2 Table A, peptide 20 μM, TRAP 4 μM, mean, n=6
  Aggregation (inhibition effects of syndecan-derived peptides): 45
TRAP-activated platelets; S2 Table B / S2 Fig, 20 μM, activation of resting platelets and inhibition of aggregation induced by 4 μM TRAP, in words
  Summary of effects of SDC4-derived palmitylated peptides and scrambled controls, 20μM: Inhibitor
TRAP-activated platelets; S3 Table, peptide 5 μM, aggregation after TRAP, n=3, listed as A7p SDC4-JM
  Platelet aggregation remaining after TRAP (low = inhibition): 75
TRAP-activated platelets; S3 Table, peptide 5 μM, aggregation after TRAP, n=3, listed as Juxtamembrane (A)
  Platelet aggregation remaining after TRAP (low = inhibition): 64
TRAP-activated platelets; S3 Table, peptide 20 μM, aggregation after TRAP, n=3, listed as A7p SDC4-JM
  Platelet aggregation remaining after TRAP (low = inhibition): 73
TRAP-activated platelets; S3 Table, peptide 20 μM, aggregation after TRAP, n=3, listed as Juxtamembrane (A)
  Platelet aggregation remaining after TRAP (low = inhibition): 45
TRAP-activated platelets; TRAP 2 μM after 6 minutes pre-incubation, 4 μM pal-peptides, 10 μM tat-peptides, mean n = 3
  Aggregation after TRAP, peptide alone 1x (A 1x / B 1x): 66.33
TRAP-activated platelets; TRAP 2 μM after 6 minutes pre-incubation, double concentration of 4 μM (pal) / 10 μM (tat), mean n = 3
  Aggregation after TRAP, peptide alone 2x (A 2x / B 2x): 64.33
TRAP-activated platelets; [1]
  Platelet aggregation after TRAP activation: 4 ^*
TRAP-activated platelets; replicate 14_06_13, peptide 20 μM, TRAP 4 μM
  Inhibition, donor 14_06_13: 72
TRAP-activated platelets; replicate 18_06_13, peptide 20 μM, TRAP 4 μM
  Inhibition, donor 18_06_13: 56
TRAP-activated platelets; replicate 20_06_13, peptide 20 μM, TRAP 4 μM
  Inhibition, donor 20_06_13: 74
TRAP-activated platelets; replicate 20_08_13, peptide 20 μM, TRAP 4 μM
  Inhibition, donor 20_08_13: 7
TRAP-activated platelets; replicate 22_08_13_DONOR1, peptide 20 μM, TRAP 4 μM
  Platelet aggregation remaining after TRAP (low = inhibition): 3
TRAP-activated platelets; replicate 22_08_13_DONOR2, peptide 20 μM, TRAP 4 μM
  Platelet aggregation remaining after TRAP (low = inhibition): 58
TRAP-activated platelets; [2]
  Aggregation after TRAP activation, donor h: 4
  Aggregation after TRAP activation, donor i: 3
  Aggregation after TRAP activation, donor j: 5

## tat-SKPIGPDDAIDALSSDFTS-(NH2) [tat-CAST_2, tat peptide from calpastatin (CAST)]
Resting platelets; unit assumed
  Activation: 3%
Resting platelets; pal 20 μM, tat 50 μM
  Aggregation before TRAP activation, donor h: 3
  Aggregation before TRAP activation, donor i: 4
  Aggregation before TRAP activation, donor j: 4
TRAP-activated platelets; [1]
  Platelet aggregation remaining after TRAP (low = inhibition): 74
TRAP-activated platelets; [2]
  Aggregation after TRAP activation, donor h: 78
  Aggregation after TRAP activation, donor i: 69
  Aggregation after TRAP activation, donor j: 76

## NSDTPPRPDRLPL-tat [PTPN12-tat, PTPN12 peptide with C-terminal tat]
Resting platelets; unit assumed
  Activation: 3%
Resting platelets; replicate donor a, pal 20 μM, tat 50 μM
  Aggregation before TRAP activation, donor a: 3
Resting platelets; replicate donor b, pal 20 μM, tat 50 μM
  Aggregation before TRAP activation, donor b: 4
Resting platelets; replicate donor c, pal 20 μM, tat 50 μM
  Aggregation before TRAP activation, donor c: 4
Resting platelets; replicate donor d, pal 20 μM, tat 50 μM
  Aggregation before TRAP activation, donor d: 4
Resting platelets; replicate donor e, pal 20 μM, tat 50 μM
  Aggregation before TRAP activation, donor e: 3
TRAP-activated platelets; [1]
  Platelet aggregation remaining after TRAP (low = inhibition): 75
TRAP-activated platelets; replicate donor a, TRAP 4 μM, pal 20 μM, tat 50 μM
  Aggregation after TRAP activation, donor a: 73
TRAP-activated platelets; replicate donor b, TRAP 4 μM, pal 20 μM, tat 50 μM
  Aggregation after TRAP activation, donor b: 76
TRAP-activated platelets; replicate donor c, TRAP 4 μM, pal 20 μM, tat 50 μM
  Aggregation after TRAP activation, donor c: 76
TRAP-activated platelets; replicate donor d, TRAP 4 μM, pal 20 μM, tat 50 μM
  Aggregation after TRAP activation, donor d: 75
TRAP-activated platelets; replicate donor e, TRAP 4 μM, pal 20 μM, tat 50 μM
  Aggregation after TRAP activation, donor e: 78

## tat-KRAPQMDWSKKNELFSNL [tat-NHERF1, tat peptide from NHERF1]
Resting platelets; unit assumed
  Activation: 3%
Resting platelets; pal 20 μM, tat 50 μM
  Aggregation before TRAP activation, donor h: 4
  Aggregation before TRAP activation, donor i: 3
  Aggregation before TRAP activation, donor j: 3
TRAP-activated platelets; [1]
  Platelet aggregation remaining after TRAP (low = inhibition): 70
TRAP-activated platelets; [2]
  Aggregation after TRAP activation, donor h: 71
  Aggregation after TRAP activation, donor i: 66
  Aggregation after TRAP activation, donor j: 75
